Results reported in patent US5948793A, “3-pyridyloxymethyl heterocyclic ether compounds useful in controlling neurotransmitter release” (Abbott Laboratories, priority 1995, dated 1999).
Counter-ions that a name gives are not always drawn. Like-named read-outs stand apart in the source and are kept apart here.

Columns and labels:
[1] = test system: dopaminergic neurons; settings: animals with induced brain injuries; cited from earlier work
[2] = test system: heart; settings: in vivo; cited from earlier work
[3] = acutely- and chronically-administered; also observed in aged animals; cited from earlier work
[4] = in vivo; cited from earlier work
[5] = cited from earlier work
[6] = test system: release of dopamine and acetylcholine; settings: cited from earlier work
[7] = transdermal patches; cited from earlier work
[8] = molecular target: neuronal nicotinic cholinergic channel receptors; assay: [3H]-cytisine displacement binding to neuronal nicotinic cholinergic channel receptors; assay type: rat (crude synaptic membranes from whole rat brain); settings: read-out: Receptor Binding Ki
Method: B. Protocol For Determination of Nicotinic Cholinergic Channel Receptor Binding Potencies of Ligands
Binding of [^3 H]-cytisine ([^3 H]-CYT) to nicotinic receptors was accomplished using crude synaptic membrane preparations from whole rat brain (Pabreza et al., Molecular Pharmaol., 1990, 39:9). Washed membranes were stored at -80° C. prior to use. Frozen aliquots were slowly thawed and resuspended in 20 volumes of buffer (containing: 120 mM NaCl, 5 mM KCl, 2 mM MgCl2, 2 mM CaCl2 and 50 mM Tris-Cl, pH 7.4 @4° C.). After centrifuging at 20,000×g for 15 minutes, the pellets were resuspended in 30 volumes of buffer. Homogenate (containing […]) was added to triplicate tubes containing concentrations of test compound and [^3 H]-CYT (1.25 nM) in a final volume of 500 μL. Samples were incubated for 60 minutes at 4° C., then rapidly filtered through Whatman GF/B filters presoaked in 0.5% polyethylimine using 3×4 mL of ice-cold buffer. The filters are counted in 4 mL of Ecolume® (ICN). […] Alternately, data were expressed as a percentage of the total specific binding.

[9] = test system: nAChR evoked release of [3H]-dopamine, rat striatal slices; assay: Striatal dopamine release assay (nAChR evoked release of [3H]-dopamine from superfused rat striatal slices); assay type: cell-based, rat (male Sprague-Dawley); settings: Table 1, relative to 100 nM (-)-nicotine
Method: The protocol for this procedure follows below.
A. Protocol for Determination of Striatal Dopamine Release.
nAChR evoked release of [ring-2,5,6-^3 H]-dopamine (24.4 Ci/mmol) was measured in superfused rat striatal slices. Striata were dissected from two male Sprague-Dawley rats per experiment and sliced 0.35×0.25 mm by a McIlwain Tissue Chopper (Brinkman Instrument Co., Westbury, N.Y.). After two washes with Krebs-HEPES buffer (137 mM NaCl, 4.7 mM KCl, 1 mM MgSO4, 2.5 mM CaCl2, 1.25 mM NaH2 PO4, 10 mM glucose, 15 mM HEPES-NaOH, pH 7.4, containing 10 μM pargyline and 10 μM ascorbic acid), slices were preincubated for 10 minutes at 37° C. under 95%/5% O2 /CO2. After replacing the buffer, slices were labeled with 100 nM [^3 H]-dopamine for 25 min in Krebs-HEPES at 37° C. Aliquots of slices were placed in 18 superfusion chambers of a Brandel SP2000 superfusion apparatus (Brandel, Gaithersberg, Md.). Following 47 minutes of washout, slices were exposed to agonist at various concentrations for 4 minutes. Antagonists or inhibitors, when present were introduced 4 minutes prior to and during agonist exposure. Collected fractions were counted in 5 mL of Ecolume. Tissue was recovered from superfusion chambers, solubilized with 1 mL of Solvable™ (DuPont-NEN) and counted in 15 mL of Ecolume. Fractional release of [^3 H]-dopamine was calculated from radioactivity above baseline as a fraction of total radioactivity.

[10] = test system: cholinergic ligand-gated channels, PC12 cells; assay: Cholinergic channel activation in PC12 cells (whole-cell patch-clamp); assay type: cell-based
Excerpt: D. Protocols for the Determination of Cholinergic Channel Activation in PC12 Cells.
The cholinergic channel activator properties of Example 9 were investigated in PC12 cells using the whole-cell patch-clamp approach to measure current flow through ligand-gated membrane channels.

[11] = Table 1, [3H]-cytisine 1.25 nM, 60 min at 4° C.
[12] = example concentration ** = 1 μM
[13] = example concentration * = 10 μM
[14] = example concentration *** = 0.1 μ

## CN1CCCC1c1cccnc1 (single isomer, unassigned; (-)) [(-)-nicotine]
[1]
  pre-synaptic loss of functional dopaminergic neurons: can prevent pre-synaptic loss of functional dopaminergic neurons
[2]
  cardiac workload and oxygen demand: increasing cardiac workload and oxygen demand
[3]
  cognitive function: enhances cognitive function in rats
[4]
  sensory-gating impairments: normalize sensory-gating impairments
[5]
  oral bioavailability: poor oral bioavailability
[6]
  release of dopamine and acetylcholine: enhance the release of dopamine and acetylcholine
[7]
  symptoms of ADD: improve the symptoms of ADD

## COC(=O)C(c1ccccc1)C1CCCCN1 (stereo not shown) [methylphenidate]
[6]
  release of dopamine and acetylcholine: enhance the release of dopamine and acetylcholine

## C[C@H](N)Cc1ccccc1 [d-amphetamine]
[6]
  release of dopamine and acetylcholine: enhance the release of dopamine and acetylcholine

## Cl.Cl.Clc1cncc(OC[C@H]2CCCN2)c1 [Example 33, 5-chloro-3-(2-(R)-pyrrolidinylmethoxy)pyridine dihydrochloride]
[8]; [11]
  Ki: 0.2 nM
[9]; [12]
  Dopamine Release relative to Nicotine: 0.62

## Cc1ccc(OC[C@@H]2CCN2C)cn1.Cl.Cl [Example 59, 3-((1-methyl-2-(S)-azetidinyl)methoxy)-6-methylpyridine dihydrochloride]
[8]; [11]
  Ki: 4.5 nM
[9]; [13]
  Dopamine Release relative to Nicotine: 0.7

## Clc1ccc(OC[C@@H]2CCN2)cn1 [Example 52, 3-(2-(S)-azetidinylmethoxy)-6-chloropyridine dihydrochloride]
[8]; [11]
  Ki: 0.04 nM
[9]; [13]
  Dopamine Release relative to Nicotine: 1.0

## Cl.Cl.c1cncc(OC[C@@H]2CCN2)c1 [Example 9, 3-(2-(S)-azetidinylmethoxy)pyridine dihydrochloride]
[10]
  cholinergic channel activator properties (current flow through ligand-gated channels): clear agonist activity
[8]; [11]
  Ki: 0.05 nM
[9]; [13]
  Dopamine Release relative to Nicotine: 1.0

## Cc1ccncc1OC[C@@H]1CCCN1C.Cl.Cl [Example 46, 4-methyl-3-((1-methyl-2-(S)-pyrrolidinyl)methoxy)pyridine dihydrochloride]
[8]; [11]
  Ki: 4 nM
[9]; [13]
  Dopamine Release relative to Nicotine: 0.85

## Cc1ccc(OC[C@@H]2CCCN2)cn1.Cl.Cl [Example 18, 6-methyl-3-(2-(S)-pyrrolidinylmethoxy)pyridine dihydrochloride]
[8]
  Ki: 0.28 nM
[9]; [14]
  Dopamine Release relative to Nicotine: 1.0

## CN1CCC[C@H]1COc1cnc2ccccc2c1.Cl [Example 31, 3-(1-methyl-2-(S)-pyrrolidinylmethoxy)quinoline hydrochloride]
[8]; [11]
  Ki: 0.7 nM
[9]; [13]
  Dopamine Release relative to Nicotine: 0.15

## Cc1ccc(OC[C@@H]2CCCN2C)cn1.Cl.Cl [Example 19, 6-methyl-3-((1-methyl-2-(S)-pyrrolidinyl)methoxy)pyridine dihydrochloride]
[8]
  Ki: 1.47 nM
[9]; [14]
  Dopamine Release relative to Nicotine: 0.78

## CN1CC[C@H]1COc1cnccn1.Cl.Cl [Example 8, 2-((1-methyl-2-(S)-azetidinyl)methoxy)pyrazine dihydrochloride]
[8]; [11]
  Ki: 33 nM
[9]; [12]
  Dopamine Release relative to Nicotine: 0.55
